In paper PMC2191296 (The Journal of Experimental Medicine, 1993):

Tests used:
mAb 34-5-8S = assay: Control: binding of free peptide to the immobilized 34-5-8S antibody surface; conditions: free peptide without H-2Dd at concentrations as high as 222 uM; SPR
H-2Dd = H-2Dd (Mus musculus, UniProt P01900); assay: Solution phase competition assay; assay type: binding; conditions: data not shown
[1] = Solubility of synthetic peptides in water; assay type: physicochemical; conditions: peptides dissolved in dH2O; insoluble ones reconstituted in 20% DMSO

Chain of H-2Dd (P01900 whole entry, looked up): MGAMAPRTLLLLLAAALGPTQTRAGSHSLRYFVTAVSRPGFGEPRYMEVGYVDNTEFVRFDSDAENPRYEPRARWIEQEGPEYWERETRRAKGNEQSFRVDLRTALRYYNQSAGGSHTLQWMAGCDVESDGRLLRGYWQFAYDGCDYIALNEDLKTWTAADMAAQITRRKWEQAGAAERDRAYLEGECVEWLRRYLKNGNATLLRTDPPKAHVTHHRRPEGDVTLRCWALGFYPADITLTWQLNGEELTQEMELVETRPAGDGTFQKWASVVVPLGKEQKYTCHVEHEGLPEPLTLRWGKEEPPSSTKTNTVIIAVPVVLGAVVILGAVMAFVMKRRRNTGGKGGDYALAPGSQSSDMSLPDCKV

Row | Sequence | signal of free peptide on immobilized 34-5-8S (mAb 34-5-8S) | relative binding to H-2Dd (H-2Dd) | solubility in water / aqueous solution [1]
1 | AGPARAAAL [pD2359] | < 7 RU | binds better than pD239 | 
2 | SGPVALVNFI [pD46A] |  |  | relative aqueous insolubility
3 | SGPVALVNF [pD46B] |  |  | relative aqueous insolubility
